The record followed here is US20050244959A1, “Methods for inducing active hepatocytes proliferation, kits using such methods and uses of said kits” (priority 2004, published 2005).

Data set [1] concerns rat hepatocytes in coculture with rat biliary epithelial cells (RLEC). The data set is described as follows: Hepatocyte DNA synthesis by BrdU labeling in rat hepatocyte/RLEC coculture. It is filed as cell-based. Here is the method:
Freshly isolated hepatocytes are seeded on plastic dishes at 7×10^4 cells per cm2 in a mixture of 75% minimal essential medium and 25% 199 medium (Eurobio), supplemented with 2 mM L-glutamine, 0,1% bovine serum albumin (BSA, Sigma), 100 μg/ml streptomycin, 100 Ul/ml penicillin, 5 μg/ml bovine insulin (Sigma), 1.4×10^-6 M hydrocortisone hemisuccinate (Roussel) and 10% fetal calf serum (Hyclone). This medium is called “basal medium”.
After cell adhesion, approximately 4 hours after seeding, RLEC, previously trypsinized, are added on spread hepatocytes at 2×10^5 cells per cm2 in basal medium.
Twenty four hours later, the medium is removed and replaced by a medium supplemented in 7×10^-5 M hydrocortisone hemisuccinate, which promotes hepatocyte differentiation and survival. This medium is renewed everyday for 4 days. Then, the concentration of hydrocortisone hemisuccinate is decreased to 7×10^-6 M for 2 days.
7 day-old cocultures are stimulated with human recombinant EGF (50 ng/ml, Promega) and human recombinant TNF-alpha (10 ng/ml, Promokine) in basal medium for 3 to 10 days. The medium is renewed everyday. As control, cocultures exposed to TNFα alone or EGF are used.
To induce several rounds of hepatocyte proliferation, 7 day-old cocultures are stimulated with human recombinant EGF (50 ng/ml) and human recombinant TNFα (10 ng/ml) in basal medium, for 10 days. Then, a pause in stimulation is performed for 4 days, during which cells are maintained in medium supplemented in 7×10^-6 M hydrocortisone hemisuccinate. Next, cocultures are treated with EGF and TNFα in basal medium for 10 days.
(§1) Hepatocyte DNA synthesis is measured by using BrdU (bromodeoxyuridine) labeling. BrdU incorporation in DNA is detected by immunohistochemistry using the Cell Proliferation Kit (Amersham). The number of labeled hepatocytes is determined (5 fields per dish) in order to calculate the percentage of BrdU incorporation.

A further data set deals with extracellular matrix. Briefly: Extracellular matrix deposition analysis (reticulin staining) in coculture. It is filed as cell-based, rat. To be noted: 7 day-old cocultures. The procedure:
Matrix fibers are visualized in cocultures fixed with a mixture of 4% paraformaldehyde and 2.5% glutaraldehyde in 0.1 M cacodylate buffer (pH 7.4) for 15 min at 4° C. Then the reticulin staining by silver impregnation of extracellular matrix is carried out according to the method of Gordon and Sweets and applied to coculture (Exp Cell Res 1984; J Cell Biol 1991). Matrix components are analysed by immunostaining using antibodies against fibronectin, collagen I, collagen III)

The next data set relates to pro-MMP9. The data set is described as follows: Gelatin zymography of coculture supernatant. The class given is cell-based, rat. To be noted: FCS-free medium, 24 h. Here is the method: 7 day-old cocultures are stimulated with different combinations of TNFα and/or EGF in a FCS-free medium for 24 h. Twenty μl of supernatant are electrophoresed under nonreducing conditions on 12% SDS-polyacrylamide gel containing 0,1% bovine skin gelatin (Sigma) as substrate. After electrophoresis, the gel is washed twice with 2.5% Triton X-100 for 10 min and twice with water for 20 min. After incubation overnight at 37° C. in reaction buffer (50 mM Tris-HCL, pH 8; 5 mM CaCl2; 5 μM ZnCl2), the gel is stained with Coomassie Brillant Blue and destained. Clear zones in blue background indicate the presence of metalloproteinase pro-MMP9 activity; 5% FCS is used as positive control.

The subject of data set [2] is cyclin D1, EF21, cyclin E, Cdk1. Briefly: Expression of cell cycle markers in coculture. The class given is cell-based, rat. To be noted: successive 24 h treatments. The procedure:
A test is provided to analyze the mechanism of cell cycle blockage or progression (early G1, Late G1, S and M) induced by drugs by studying the expression of cell cycle markers which sign different steps of cell cycle (cyclin D1, E2 F1, Cdk2, cyclin E, Cdk1, cyclin B, PCNA, alpha tubulin). Successive 24 h treatments of cocultures by molecules added alone or in combination with EGF or TNFα are used to determine the effect of each molecule.
Cells are arrested at each time (24 and 48 h) and protein extracts are prepared and separated in SDS-polyacrylamide gel. Cell cycle markers are analyzed by western blot using corresponding antibodies.

In a further data set the test system is human hepatocytes. Briefly: DNA synthesis by BrdU incorporation in pure culture of human hepatocytes. The class given is cell-based. Conditions: stimulated 24 h after seeding for 48 h. Here is the method: Freshly isolated hepatocytes are seeded on plastic dishes at 5×10^4 cells per cm2 in a William's E medium (Eurobio) supplemented with 2 mM L-glutamine (Gibco), 0,1% bovine serum albumin (BSA, Sigma), 100 μg/ml streptomycin, 100 Ul/ml penicillin (Eurobio), 50 μg/ml gentamycine (Sigma), 5 μg/ml bovine insulin (Sigma), and 10% fetal calf serum (HyClone).
Twenty four hours after seeding, human hepatocytes are stimulated with recombinant human TNFα (Promokine, 10 ng/ml) and recombinant human EGF (Promega, 50 ng/ml). These factors are added in William's E medium (Eurobio) supplemented with 2 mM L-glutamine (Gibco), 0,1% bovine serum albumin (BSA, Sigma), 100 μg/ml streptomycin, 100 Ul/ml penicillin (Eurobio), 50 μg/ml gentamycine (Sigma), 5 μg/ml bovine insulin (Sigma), 1.4×10^-6 M hydrocortisone hemisuccinate (Roussel), 10% fetal calf serum. This medium is renewed every day and stimulation lasts at least 2 days.
BrdU is incubated in medium during the last 24 h of treatment. Then pure cultures are fixed with a mixture of 90% ethanol, 5% acid acetic and 5% water for 20 min at 4° C. BrdU incorporation in DNA is detected by immunohistochemistry using the Cell Proliferation kit (Amersham). Next, cytoplasm and nuclei are stained in blue with Hemalun (Merck). The numbers of labeled hepatocytes are determined (5 fields per dish) in order to calculate percentage of BrdU incorporation.

The subject of data set [3] is rat hepatocytes in coculture. Briefly: Inhibition of extracellular matrix remodeling: hepatocyte DNA synthesis in coculture. Conditions: phenanthroline 1 μM added to cocultures treated with EGF for 24 h and then with TNFα. The class given is cell-based. Here is the method: as §1
7 day-old cocultures are stimulated with EGF and then with TNFα for 24 h periods. Factors are added in a FCS-free medium. Inhibition of extracellular matrix degradation is induced with 1,10-Phenanthroline monohydrate (Sigma), a chelator of metal ions which inhibits the metalloproteinase activity. This compound is soluble in dimethylsulfoxyde and is used at 1 μM.

In the case of “interleukin 6: cytokine known to modulate extracellular matrix remodeling, used at 5 ng/ml”, the “hepatocyte response to growth factors (DNA replication)” value in data set [1] (coculture, 5 ng/ml) is reported as “allow hepatocytes to respond to growth factors”.

Take TNFα: the “extracellular matrix (ECM) deposition” value with extracellular matrix was “very sparse”. Also, in the data set on pro-MMP9, the “Pro-MMP9 (92 Kda) expression by zymography” value is “expressed”. Further, the “effect on hepatocyte cell cycle progression” value in data set [2] is “allows S entry through Cdk1 induction”.

In the case of “EGF: human recombinant EGF (50 ng/ml, Promega), growth factor”, the “BrdU incorporation under permanent exposure” value in data set [1] (continued after a first 10 day-stimulation with TNFα/EGF, from day 10) was “gradually decreases”. For the same compound, the “extracellular matrix (ECM) deposition” value with extracellular matrix is given as “very abundant”. For the same compound, the “Pro-MMP9 (92 Kda) expression by zymography” value in the data set with pro-MMP9 is on record as “not detected”. Also, the “hepatocytes with DNA synthesis (S phase entry)” value in the data set with human hepatocytes was found to be 8%. In addition, the “effect on hepatocyte cell cycle progression” value in data set [2] is “promotes hepatocyte cell cycle progression to late G1”.

On to “TGFα: transforming growth factor alpha (20 ng/ml), replacing EGF”, for which, in data set [1] (with TNFα, HGF 25 ng/ml, TGFα 20 ng/ml, compared with TNFα/EGF), the “DNA synthesis when EGF is replaced by another growth factor” value was “highest DNA synthesis”.

On to `O.c1cnc2c(c1)ccc1cccnc12` [phenanthroline, 1,10-Phenanthroline monohydrate], for which the DNA synthesis entry in data set [3] is listed as “strongly decreased”.
